In PubChem BioAssay AID256 (DTP/NCI, 2004):
Values joined by “and” are separate entries in the source; they are usually repeats but may differ in a detail not shown here. Equal values may be shown once. Inconclusive results and toxic doses are left out.

Test system: CD2F1 mice, L1210 leukemia ip, survival T/C
Test: NCI In Vivo Anticancer Drug Screen. Data for tumor model L1210 Leukemia (intraperitoneal) in CD2F1 (CDF1) mice
Details: higher = longer survival
Procedure, shortened: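 Tumor-bearing mice (transplanted tumor) were split into treated and vehicle control groups, and the measured endpoint of each treated group was divided by that of its vehicle controls.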

[1] = endpoint: mean survival time, dose: 25.0 mg/kg/injection, schedule: Q04DX003 (ip), vehicle: saline with Tween-80
[2] = endpoint: mean survival time, dose: 50.0 mg/kg/injection, schedule: Q04DX003 (ip), vehicle: saline with Tween-80
[3] = endpoint: mean survival time, dose: 200.0 mg/kg/injection, schedule: Q04DX003 (ip), vehicle: saline with Tween-80
[4] = endpoint: mean survival time, dose: 400.0 mg/kg/injection, schedule: Q04DX003 (ip), vehicle: saline with Tween-80
[5] = endpoint: mean survival time, dose: 100.0 mg/kg/injection, schedule: Q01DX001 (ip), vehicle: Klucel (hydroxypropylcellulose) (HPC)
[6] = endpoint: mean survival time, dose: 200.0 mg/kg/injection, schedule: Q01DX001 (ip), vehicle: Klucel (hydroxypropylcellulose) (HPC)
[7] = endpoint: mean survival time, dose: 400.0 mg/kg/injection, schedule: Q01DX001 (ip), vehicle: Klucel (hydroxypropylcellulose) (HPC)
[8] = endpoint: mean survival time, dose: 100.0 mg/kg/injection, schedule: Q04DX002 (ip), vehicle: saline with Tween-80
[9] = endpoint: mean survival time, dose: 200.0 mg/kg/injection, schedule: Q04DX002 (ip), vehicle: saline with Tween-80
[10] = endpoint: mean survival time, dose: 400.0 mg/kg/injection, schedule: Q04DX002 (ip), vehicle: saline with Tween-80
[11] = endpoint: mean survival time, dose: 100.0 mg/kg/injection, schedule: Q04DX003 (ip), vehicle: saline with Tween-80

## COc1cc(C=Nc2cc(Cl)ccc2-n2ccnc2C)ccc1N(CCCl)CCCl
endpoint: mean survival time, dose: 12.5 mg/kg/injection, schedule: Q04DX003 (ip), vehicle: saline with Tween-80
  T/C: 117 % of control
[1]
  T/C: 113 % of control
[2]
  T/C: 118 % of control
[3]
  T/C: 115 % of control
[4]
  T/C: 89 % of control

## CC([NH-])C(C)[NH-].[Cl][Pt+2][Cl] (centres undefined)
endpoint: mean survival time, dose: 1.56 mg/kg/injection, schedule: Q04DX002 (ip), vehicle: Klucel (hydroxypropylcellulose) (HPC)
  T/C: 113 % of control
endpoint: mean survival time, dose: 3.12 mg/kg/injection, schedule: Q04DX002 (ip), vehicle: Klucel (hydroxypropylcellulose) (HPC)
  T/C: 120 % of control
endpoint: mean survival time, dose: 12.5 mg/kg/injection, schedule: Q04DX002 (ip), vehicle: Klucel (hydroxypropylcellulose) (HPC)
  T/C: 166 % of control
endpoint: mean survival time, dose: 25.0 mg/kg/injection, schedule: Q04DX002 (ip), vehicle: Klucel (hydroxypropylcellulose) (HPC)
  T/C: 118 % of control and 120 % of control
endpoint: mean survival time, dose: 50.0 mg/kg/injection, schedule: Q04DX002 (ip), vehicle: Klucel (hydroxypropylcellulose) (HPC)
  T/C: 89 % of control

## O=c1[nH]c2ccccc2c2ccccc2[nH]c(=O)c2ccccc12
[5]
  T/C: 98 % of control
[6]
  T/C: 102 % of control
[7]
  T/C: 102 % of control

## C/C=C/COc1c(C)cc(C)cc1/C=C/C
[8]
  T/C: 94 % of control
[9]
  T/C: 94 % of control
[10]
  T/C: 102 % of control

## O=c1n(C2OC(CO)C(O)C2O)ccc2nnnn12 (centres undefined)
endpoint: mean survival time, dose: 12.5 mg/kg/injection, schedule: Q01DX005 (ip), vehicle: distilled water + Tween-80
  T/C: 100 % of control
endpoint: mean survival time, dose: 25.0 mg/kg/injection, schedule: Q01DX005 (ip), vehicle: distilled water + Tween-80
  T/C: 96 % of control
endpoint: mean survival time, dose: 50.0 mg/kg/injection, schedule: Q01DX005 (ip), vehicle: distilled water + Tween-80
  T/C: 100 % of control
endpoint: mean survival time, dose: 100.0 mg/kg/injection, schedule: Q01DX005 (ip), vehicle: distilled water + Tween-80
  T/C: 96 % of control
endpoint: mean survival time, dose: 200.0 mg/kg/injection, schedule: Q01DX005 (ip), vehicle: distilled water + Tween-80
  T/C: 102 % of control

## CCOc1cc(N)nc2c1nnn2C1OC(CO)C(O)C1O (centres undefined)
endpoint: mean survival time, dose: 6.25 mg/kg/injection, schedule: Q01DX005 (ip), vehicle: other
  T/C: 107 % of control
endpoint: mean survival time, dose: 12.5 mg/kg/injection, schedule: Q01DX005 (ip), vehicle: other
  T/C: 98 % of control
endpoint: mean survival time, dose: 25.0 mg/kg/injection, schedule: Q01DX005 (ip), vehicle: other
  T/C: 101 % of control
endpoint: mean survival time, dose: 50.0 mg/kg/injection, schedule: Q01DX005 (ip), vehicle: other
  T/C: 98 % of control
endpoint: mean survival time, dose: 100.0 mg/kg/injection, schedule: Q01DX005 (ip), vehicle: other
  T/C: 101 % of control
endpoint: mean survival time, dose: 200.0 mg/kg/injection, schedule: Q01DX005 (ip), vehicle: other
  T/C: 98 % of control

## Nc1ncnc2nc(SCc3cccc([N+](=O)[O-])c3)[nH]c12
endpoint: mean survival time, dose: 100.0 mg/kg/injection, schedule: Q01DX001 (ip), vehicle: saline with Tween-80
  T/C: 96 % of control
endpoint: mean survival time, dose: 200.0 mg/kg/injection, schedule: Q01DX001 (ip), vehicle: saline with Tween-80
  T/C: 90 % of control
endpoint: mean survival time, dose: 400.0 mg/kg/injection, schedule: Q01DX001 (ip), vehicle: saline with Tween-80
  T/C: 90 % of control

## CCCC(NC(=O)C(C)Br)C(=O)O (centres undefined)
[11]
  T/C: 95 % of control
[3]
  T/C: 96 % of control
[4]
  T/C: 100 % of control

## CCCCCCC(C)Oc1ccc(Cl)cc1Cl (centres undefined)
[8]
  T/C: 90 % of control
[9]
  T/C: 90 % of control
[10]
  T/C: 101 % of control

## CN1CCCN(C)C1c1cc(Cl)ccc1O
endpoint: mean survival time, dose: 6.25 mg/kg/injection, schedule: Q01DX009 (ip), vehicle: saline with Tween-80
  T/C: 98 % of control
endpoint: mean survival time, dose: 12.5 mg/kg/injection, schedule: Q01DX009 (ip), vehicle: saline with Tween-80
  T/C: 98 % of control
endpoint: mean survival time, dose: 25.0 mg/kg/injection, schedule: Q01DX009 (ip), vehicle: saline with Tween-80
  T/C: 98 % of control
[11]
  T/C: 103 % of control
[3]
  T/C: 121 % of control
[4]
  T/C: 95 % of control

## Cc1c(C)c(C)c([N+](=O)[O-])c([N+](=O)[O-])c1C
endpoint: mean survival time, dose: 50.0 mg/kg/injection, schedule: Q01DX005 (ip), vehicle: saline with Tween-80
  T/C: 101 % of control
endpoint: mean survival time, dose: 100.0 mg/kg/injection, schedule: Q01DX005 (ip), vehicle: saline with Tween-80
  T/C: 101 % of control
endpoint: mean survival time, dose: 200.0 mg/kg/injection, schedule: Q01DX005 (ip), vehicle: saline with Tween-80
  T/C: 101 % of control

## NS(=O)(=O)C1CCC(Cl)NC1 (centres undefined)
[11]
  T/C: 100 % of control
[3]
  T/C: 96 % of control
[4]
  T/C: 102 % of control

## COCC(O)Cn1ccnc1[N+](=O)[O-] (centres undefined)
endpoint: mean survival time, dose: 12.5 mg/kg/injection, schedule: Q01DX009 (ip), vehicle: suspension in saline
  T/C: 102 % of control
endpoint: mean survival time, dose: 12.5 mg/kg/injection, schedule: Q01DX009 (ip), vehicle: water
  T/C: 100 % of control
endpoint: mean survival time, dose: 25.0 mg/kg/injection, schedule: Q01DX009 (ip), vehicle: suspension in saline
  T/C: 104 % of control
endpoint: mean survival time, dose: 25.0 mg/kg/injection, schedule: Q01DX009 (ip), vehicle: water
  T/C: 101 % of control
endpoint: mean survival time, dose: 50.0 mg/kg/injection, schedule: Q01DX009 (ip), vehicle: suspension in saline
  T/C: 104 % of control
endpoint: mean survival time, dose: 50.0 mg/kg/injection, schedule: Q01DX009 (ip), vehicle: water
  T/C: 103 % of control
endpoint: mean survival time, dose: 100.0 mg/kg/injection, schedule: Q01DX009 (ip), vehicle: suspension in saline
  T/C: 107 % of control
endpoint: mean survival time, dose: 100.0 mg/kg/injection, schedule: Q01DX009 (ip), vehicle: water
  T/C: 97 % of control
endpoint: mean survival time, dose: 200.0 mg/kg/injection, schedule: Q01DX009 (ip), vehicle: suspension in saline
  T/C: 104 % of control
endpoint: mean survival time, dose: 200.0 mg/kg/injection, schedule: Q01DX009 (ip), vehicle: water
  T/C: 103 % of control
endpoint: mean survival time, dose: 400.0 mg/kg/injection, schedule: Q01DX009 (ip), vehicle: suspension in saline
  T/C: 96 % of control
endpoint: mean survival time, dose: 400.0 mg/kg/injection, schedule: Q01DX009 (ip), vehicle: water
  T/C: 101 % of control

## O=[N+]([O-])c1cccc(N=Cc2ccc3c(c2)OCO3)c1
endpoint: mean survival time, dose: 100.0 mg/kg/injection, schedule: Q04DX003 (ip), vehicle: alcohol
  T/C: 105 % of control
endpoint: mean survival time, dose: 200.0 mg/kg/injection, schedule: Q04DX003 (ip), vehicle: alcohol
  T/C: 108 % of control
endpoint: mean survival time, dose: 400.0 mg/kg/injection, schedule: Q04DX003 (ip), vehicle: alcohol
  T/C: 97 % of control

## O/N=C\C[n+]1cc2ccccc2cc1/C=N\O
endpoint: mean survival time, dose: 12.5 mg/kg/injection, schedule: Q04DX003 (ip), vehicle: saline
  T/C: 93 % of control
endpoint: mean survival time, dose: 25.0 mg/kg/injection, schedule: Q04DX003 (ip), vehicle: saline
  T/C: 101 % of control
endpoint: mean survival time, dose: 50.0 mg/kg/injection, schedule: Q04DX003 (ip), vehicle: saline
  T/C: 90 % of control

## CCCCCCCCCCNC1=C(Cl)C(=O)c2ccccc2C1=O
[1]
  T/C: 98 % of control
[2]
  T/C: 94 % of control
[11]
  T/C: 95 % of control

## O=C(O)CS(=O)(=O)c1ccc(Cl)cc1
[5]
  T/C: 111 % of control
[6]
  T/C: 103 % of control
[7]
  T/C: 100 % of control

## O=C1CN2CCC1CC2
endpoint: mean survival time, dose: 100.0 mg/kg/injection, schedule: Q04DX003 (ip), vehicle: saline
  T/C: 102 % of control
endpoint: mean survival time, dose: 200.0 mg/kg/injection, schedule: Q04DX003 (ip), vehicle: saline
  T/C: 107 % of control

## Nc1c(-c2nccc(=O)[nH]2)ncn1C1OC(CO)C(O)C1O (centres undefined)
endpoint: median survival time, dose: 12.5 mg/kg/injection, schedule: Q01DX005 (ip), vehicle: saline with Tween-80
  T/C: 102 % of control
endpoint: median survival time, dose: 25.0 mg/kg/injection, schedule: Q01DX005 (ip), vehicle: saline with Tween-80
  T/C: 96 % of control
endpoint: median survival time, dose: 50.0 mg/kg/injection, schedule: Q01DX005 (ip), vehicle: saline with Tween-80
  T/C: 103 % of control
endpoint: median survival time, dose: 100.0 mg/kg/injection, schedule: Q01DX005 (ip), vehicle: saline with Tween-80
  T/C: 98 % of control
endpoint: median survival time, dose: 200.0 mg/kg/injection, schedule: Q01DX005 (ip), vehicle: saline with Tween-80
  T/C: 102 % of control

## COC(=O)CCC(=O)c1ccc(C)cc1
endpoint: mean survival time, dose: 100.0 mg/kg/injection, schedule: Q04DX003 (ip), vehicle: acetone
  T/C: 94 % of control
endpoint: mean survival time, dose: 200.0 mg/kg/injection, schedule: Q04DX003 (ip), vehicle: acetone
  T/C: 104 % of control
endpoint: mean survival time, dose: 400.0 mg/kg/injection, schedule: Q04DX003 (ip), vehicle: acetone
  T/C: 98 % of control

## CCCCCCCCCCCCCCCCOc1ccc(C(C)=O)cc1
endpoint: mean survival time, dose: 200.0 mg/kg/injection, schedule: Q01DX009 (ip), vehicle: saline with Tween-80
  T/C: 89 % of control
endpoint: mean survival time, dose: 400.0 mg/kg/injection, schedule: Q01DX009 (ip), vehicle: saline with Tween-80
  T/C: 96 % of control
